Measured values reported in patent publication US9593108B2, “Compounds and methods for antiviral treatment” (PTC Therapeutics, Inc., priority 2009, dated 2017).

Experiments:
[1] = tested on: HCV replicon RNA (GenBank Accession No. AJ242654); assay: HCV Replicon Assay (replicon RNA reduction and/or Fluc reporter signal); format: cell-based, Hepatitis C virus; conditions: Hepatitis C virus, 72 h, replicon-containing cells cultured with test compound for up to 3 days
Outline: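 Bicistronic replicon-containing cells cultured with compound for up to 3 days, with interferon as positive control. Inhibition quantified by replicon RNA reduction and/or Fluc reporter signal; IC50 values generally derived from replicon RNA reduction.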

| SMILES | IC50 [1] [nM] | melting point [°C] |
| --- | --- | --- |
| CC[C@H](NS(=O)(=O)c1ccc(-c2c(C#N)c3cc(Cl)cnc3n2C2CCCC2)nc1)C(F)(F)F [Cpd 233, 6-(5-chloro-3-cyano-1-cyclopentyl-1H-pyrrolo[2,3-b]pyridin-2-yl)-N-[(2S)-1,1,1-trifluorobutan-2-yl]pyridine-3-sulfonamide] | < 500 | 180 to 185 |
| C[C@H](NS(=O)(=O)c1ccc(-c2c(C#N)c3ncc(Cl)cc3n2C2CCC2)nc1)C(F)(F)F [Cpd 234, 6-(6-chloro-3-cyano-1-cyclobutyl-1H-pyrrolo[3,2-b]pyridin-2-yl)-N-[(2S)-1,1,1-trifluoropropan-2-yl]pyridine-3-sulfonamide] | < 500 | 201 to 205 |
| C[C@H](NS(=O)(=O)c1ccc(-c2c(C#N)c3ncc(Cl)cc3n2C2CCC2)cc1)C(F)(F)F [Cpd 235, 4-(6-chloro-3-cyano-1-cyclobutyl-1H-pyrrolo[3,2-b]pyridin-2-yl)-N-[(2S)-1,1,1-trifluoropropan-2-yl]benzenesulfonamide] | 500 to 2000 | 205 to 210 |
| COc1cnc2c(c1)c(C#N)c(-c1ccc(S(=O)(=O)N[C@@H](C)C(F)(F)F)c[n+]1[O-])n2C1CCC1 [Cpd 236, 6-(3-cyano-1-cyclobutyl-5-methoxy-1H-pyrrolo[2,3-b]pyridin-2-yl)-N-[(2S)-1,1,1-trifluoropropan-2-yl]pyridine-3-sulfonamide 1-oxide] | 2000 to 5000 | 155 to 157 |
| C[C@H](NS(=O)(=O)c1ccc(-c2c(C#N)c3cc(-c4cccs4)cnc3n2C2CCC2)nc1)C(F)(F)F [Cpd 237, 6-[3-cyano-1-cyclobutyl-5-(thiophen-2-yl)-1H-pyrrolo[2,3-b]pyridin-2-yl]-N-[(2S)-1,1,1-trifluoropropan-2-yl]pyridine-3-sulfonamide] | 2000 to 5000 | 206 to 208 |
| C[C@@H](NS(=O)(=O)c1ccc(-c2c(C#N)c3cc(-c4cccs4)cnc3n2C2CCC2)nc1)C(F)(F)F [Cpd 238, 6-[3-cyano-1-cyclobutyl-5-(thiophen-2-yl)-1H-pyrrolo[2,3-b]pyridin-2-yl]-N-[(2R)-1,1,1-trifluoropropan-2-yl]pyridine-3-sulfonamide] | 2000 to 5000 | 198 to 199 |
| C[C@H](NS(=O)(=O)c1ccc(-c2c(C#N)c3cc(N4CCCC4)cnc3n2C2CCC2)nc1)C(F)(F)F [Cpd 239, 6-[3-cyano-1-cyclobutyl-5-(pyrrolidin-1-yl)-1H-pyrrolo[2,3-b]pyridin-2-yl]-N-[(2S)-1,1,1-trifluoropropan-2-yl]pyridine-3-sulfonamide] | 500 to 2000 | 207 to 209 |
| C[C@@H](NS(=O)(=O)c1ccc(-c2c(C#N)c3cc(N4CCCC4)cnc3n2C2CCC2)nc1)C(F)(F)F [Cpd 240, 6-[3-cyano-1-cyclobutyl-5-(pyrrolidin-1-yl)-1H-pyrrolo[2,3-b]pyridin-2-yl]-N-[(2R)-1,1,1-trifluoropropan-2-yl]pyridine-3-sulfonamide] | 500 to 2000 | 207 to 209 |
| COc1cc2c(C#N)c(-c3ccc(S(=O)(=O)N[C@@H](C)C(F)(F)F)cn3)n(C3CCC3)c2nc1C [Cpd 242, 6-(3-cyano-1-cyclobutyl-5-methoxy-6-methyl-1H-pyrrolo[2,3-b]pyridin-2-yl)-N-[(2S)-1,1,1-trifluoropropan-2-yl]pyridine-3-sulfonamide] | < 500 | 175 to 177 |
| COc1cc2c(C#N)c(-c3ccc(S(=O)(=O)N[C@H](C)C(F)(F)F)cn3)n(C3CCC3)c2nc1C [Cpd 243, 6-(3-cyano-1-cyclobutyl-5-methoxy-6-methyl-1H-pyrrolo[2,3-b]pyridin-2-yl)-N-[(2R)-1,1,1-trifluoropropan-2-yl]pyridine-3-sulfonamide] | 2000 to 5000 | 175 to 177 |
| CC(C)NS(=O)(=O)c1ccc(-c2c(C#N)c3cc(C(F)(F)F)cnc3n2C2CCC2)nc1 [Cpd 244, 6-[3-cyano-1-cyclobutyl-5-(trifluoromethyl)-1H-pyrrolo[2,3-b]pyridin-2-yl]-N-(propan-2-yl)pyridine-3-sulfonamide] | < 500 | 186 to 187 |
| CCCS(=O)(=O)Nc1ccc(-c2c(C#N)c3cc(C(F)(F)F)cnc3n2C2CCC2)cc1 [Cpd 247, N-{4-[3-cyano-1-cyclobutyl-5-(trifluoromethyl)-1H-pyrrolo[2,3-b]pyridin-2-yl]phenyl}propane-1-sulfonamide] | 500 to 2000 | 180 to 181 |
| COc1cnc2c(c1)c(C#N)c(-c1ccc(S(=O)(=O)N[C@@H](C)C(F)(F)F)cn1)n2C1CCCC1 [Cpd 248, 6-(3-cyano-1-cyclopentyl-5-methoxy-1H-pyrrolo[2,3-b]pyridin-2-yl)-N-[(2S)-1,1,1-trifluoropropan-2-yl]pyridine-3-sulfonamide] | < 500 | 178 to 180 |
| C[C@@H](NS(=O)(=O)c1ccc(-c2c(C#N)c3cc(C4CC4)cnc3n2C2CCCC2)nc1)C(F)(F)F [Cpd 249, 6-(3-cyano-1-cyclopentyl-5-cyclopropyl-1H-pyrrolo[2,3-b]pyridin-2-yl)-N-[(2R)-1,1,1-trifluoropropan-2-yl]pyridine-3-sulfonamide] | 500 to 2000 | 155 to 164 |
| C[C@H](NS(=O)(=O)c1ccc(-c2c(C#N)c3cc(C4CC4)cnc3n2C2CCCC2)nc1)C(F)(F)F [Cpd 250, 6-(3-cyano-1-cyclopentyl-5-cyclopropyl-1H-pyrrolo[2,3-b]pyridin-2-yl)-N-[(2S)-1,1,1-trifluoropropan-2-yl]pyridine-3-sulfonamide] | < 500 | 157 to 167 |
| Cc1cnc2c(c1)c(C#N)c(-c1ccc(S(=O)(=O)N[C@H](C)C(F)(F)F)cn1)n2C1CCCC1 [Cpd 254, 6-(3-cyano-1-cyclopentyl-5-methyl-1H-pyrrolo[2,3-b]pyridin-2-yl)-N-[(2R)-1,1,1-trifluoropropan-2-yl]pyridine-3-sulfonamide] | < 500 | 155 to 162 |
| Cc1cnc2c(c1)c(C#N)c(-c1ccc(S(=O)(=O)NC3(C)CC3)cn1)n2C1CCCC1 [Cpd 256, 6-(3-cyano-1-cyclopentyl-5-methyl-1H-pyrrolo[2,3-b]pyridin-2-yl)-N-(1-methylcyclopropyl)pyridine-3-sulfonamide] | 500 to 2000 | 143 to 153 |
| COc1cnc2c(c1)c(C#N)c(-c1ccc(S(=O)(=O)N(C(C)=O)[C@@H](C)C(F)(F)F)cn1)n2C1CCCC1 [Cpd 257, N-{[6-(3-cyano-1-cyclopentyl-5-methoxy-1H-pyrrolo[2,3-b]pyridin-2-yl)pyridin-3-yl]sulfonyl}-N-[(2S)-1,1,1-trifluoropropan-2-yl]acetamide] | < 500 | 169 to 173 |
| CCc1nc2c(cc1OC)c(C#N)c(-c1ccc(S(=O)(=O)N[C@@H](C)C(F)(F)F)cn1)n2C1CCC1 [Cpd 258, 6-(3-cyano-1-cyclobutyl-6-ethyl-5-methoxy-1H-pyrrolo[2,3-b]pyridin-2-yl)-N-[(2S)-1,1,1-trifluoropropan-2-yl]pyridine-3-sulfonamide] | < 500 | 186 to 189 |
| CCc1nc2c(cc1OC)c(C#N)c(-c1ccc(S(=O)(=O)N[C@H](C)C(F)(F)F)cn1)n2C1CCC1 [Cpd 259, 6-(3-cyano-1-cyclobutyl-6-ethyl-5-methoxy-1H-pyrrolo[2,3-b]pyridin-2-yl)-N-[(2R)-1,1,1-trifluoropropan-2-yl]pyridine-3-sulfonamide] | 2000 to 5000 | 189 to 199 |
| CCC(NS(=O)(=O)c1ccc(-c2c(C#N)c3cc(Cl)cnc3n2C2CCCC2)nc1)C(F)(F)F (centres unmarked) [Cpd 260, 6-(5-chloro-3-cyano-1-cyclopentyl-1H-pyrrolo[2,3-b]pyridin-2-yl)-N-(1,1,1-trifluorobutan-2-yl)pyridine-3-sulfonamide] | < 500 | 170 to 174 |
| CCC(NS(=O)(=O)c1ccc(-c2c(C#N)c3cc(OC)cnc3n2C2CCC2)nc1)C(F)(F)F (centres unmarked) [Cpd 261, 6-(3-cyano-1-cyclobutyl-5-methoxy-1H-pyrrolo[2,3-b]pyridin-2-yl)-N-(1,1,1-trifluorobutan-2-yl)pyridine-3-sulfonamide] | < 500 | 185 to 190 |
| Cc1cnc2c(c1)c(C#N)c(-c1ccc(S(=O)(=O)N[C@H](C)C(F)(F)F)cc1)n2C1CCCC1 [Cpd 262, 4-(3-cyano-1-cyclopentyl-5-methyl-1H-pyrrolo[2,3-b]pyridin-2-yl)-N-[(2R)-1,1,1-trifluoropropan-2-yl]benzenesulfonamide] | < 500 | 189 to 195 |
| Cc1cnc2c(c1)c(C#N)c(-c1ccc(S(=O)(=O)N[C@@H](C)C(F)(F)F)cc1)n2C1CCCC1 [Cpd 263, 4-(3-cyano-1-cyclopentyl-5-methyl-1H-pyrrolo[2,3-b]pyridin-2-yl)-N-[(2S)-1,1,1-trifluoropropan-2-yl]benzenesulfonamide] | < 500 | 191 to 196 |
| Cc1cnc2c(c1)c(C#N)c(-c1ccc(NC(C)C)cc1)n2C1CCC1 [Cpd 264, 1-cyclobutyl-5-methyl-2-[4-(propan-2-ylamino)phenyl]-1H-pyrrolo[2,3-b]pyridine-3-carbonitrile] | < 500 | 193 to 199 |
| Cc1cnc2c(c1)c(C#N)c(-c1ccc(NC(=O)C(C)C)cc1)n2C1CCC1 [Cpd 265, N-[4-(3-cyano-1-cyclobutyl-5-methyl-1H-pyrrolo[2,3-b]pyridin-2-yl)phenyl]-2-methylpropanamide] | 500 to 2000 | 134 to 140 |
| Cc1cnc2c(c1)c(C#N)c(-c1ccc(NC(=O)NC(C)C)cc1)n2C1CCC1 [Cpd 266, 1-[4-(3-cyano-1-cyclobutyl-5-methyl-1H-pyrrolo[2,3-b]pyridin-2-yl)phenyl]-3-propan-2-ylurea] | < 500 | 224 to 231 |
| Cc1cnc2c(c1)c(C#N)c(-c1ccc(NS(=O)(=O)C(C)C)cc1)n2C1CCC1 [Cpd 267, N-[4-(3-cyano-1-cyclobutyl-5-methyl-1H-pyrrolo[2,3-b]pyridin-2-yl)phenyl]propane-2-sulfonamide] | 500 to 2000 | 155 to 164 |
